Experimental data taken from the CheMixHub viscosity set.

Experiment: xn = mol fraction of the nth substance listed

CCCCCCCO + CCO
viscosity [mPa·s], 101 kPa
Conditions	298.15 K	308.15 K	318.15 K
x2 = 0.05	5.456	4.038	3.025
x2 = 0.1	5.144	3.82	2.89
x2 = 0.15	4.838	3.607	2.75
x2 = 0.2	4.539	3.4	2.607
x2 = 0.25	4.249	3.199	2.465
x2 = 0.3	3.969	3.005	2.325
x2 = 0.35	3.699	2.817	2.188
x2 = 0.4	3.439	2.636	2.055
x2 = 0.45	3.191	2.462	1.927
x2 = 0.5	2.954	2.294	1.805
x2 = 0.55	2.727	2.132	1.688
x2 = 0.6	2.512	1.977	1.577
x2 = 0.65	2.306	1.827	1.471
x2 = 0.7	2.111	1.682	1.369
x2 = 0.75	1.924	1.543	1.271
x2 = 0.8	1.744	1.408	1.174
x2 = 0.85	1.571	1.276	1.078
x2 = 0.9	1.403	1.147	0.9796
x2 = 0.95	1.237	1.021	0.8769

OC1CCCCC1 + O=C1CCCCC1
298.15 K, 101.3 kPa
Conditions	viscosity [mPa·s]
x2 = 0.2	13.85
x2 = 0.4	6.29
x2 = 0.51	4.54
x2 = 0.6	3.54
x2 = 0.8	2.38

CCCCCCCO + CCOC(C)=O
viscosity [mPa·s], 101.33 kPa
Conditions	x2 = 0.1277	x2 = 0.2478	x2 = 0.3609	x2 = 0.4677	x2 = 0.5686	x2 = 0.6673	x2 = 0.7546	x2 = 0.8406
298.15 K	3.587	2.423	1.721	1.284	1	0.823	0.663	0.569
303.15 K	3.13	2.144	1.543	1.184	0.914	0.752	0.627	0.529
308.15 K	2.724	1.904	1.41	1.065	0.839	0.696	0.576	0.496

CCC(N)=O + c1ccncc1
298.15 K, 101 kPa
Conditions	viscosity [mPa·s]
x1 = 0.0852	1.047
x1 = 0.1462	1.208
x1 = 0.2521	1.615

CCCCCCCCn1cc[n+](C)c1.O=[N+]([O-])[O-] + CCCO
101 kPa
Conditions	viscosity [mPa·s]
293.15 K, x2 = 0.107	510.9
298.15 K, x2 = 0.258	191.5

OC1CCCCC1 + COCCO
303.15 K, 101.3 kPa
Conditions	viscosity [mPa·s]
x2 = 0.135	31.36
x2 = 0.232	23.64
x2 = 0.3144	17.36
x2 = 0.4389	9.281
x2 = 0.4908	6.609
x2 = 0.5515	4.075
x2 = 0.9188	0.811

OC1CCCCC1 + OCCO
viscosity [mPa·s], 100 kPa
Conditions	293.15 K	298.15 K	303.15 K	308.15 K	313.15 K	318.15 K
x1 = 0.0097	20.9	16.96	13.79	11.32	9.626	7.932
x1 = 0.0396	21.26	17.11	13.94	11.35	9.765	8.069
x1 = 0.058	21.37	17.21	14.04	11.44	9.849	8.139
x1 = 0.088	21.54	17.34	14.16	11.54	9.965	8.26
x1 = 0.1001	21.6	17.4	14.2	11.58	10	8.294
x1 = 0.1963	21.79	17.59	14.34	11.66	10.09	8.427
x1 = 0.3051	21.94	17.71	14.45	11.76	10.19	8.481
x1 = 0.397	22.13	17.96	14.66	12.02	10.42	8.606
x1 = 0.4994	23.25	18.43	15.1	12.54	10.71	8.723
x1 = 0.5878	26.46	20.22	16.33	12.82	11.32	9.179
x1 = 0.6994	31.25	23.24	18.88	14.44	12.15	9.912
x1 = 0.7971	38.27	28.43	22.87	17.78	14.34	11.34
x1 = 0.8978	53.55	38	28.77	22.38	17.93	13.99

CCN(CC)CCO + CC(=O)c1ccccc1
viscosity [mPa·s], 101.3 kPa
Conditions	x2 = 0.1124	x2 = 0.2218	x2 = 0.3282	x2 = 0.4318	x2 = 0.5327	x2 = 0.631	x2 = 0.7268	x2 = 0.8201	x2 = 0.9112
303.15 K	3.131	2.954	2.778	2.601	2.424	2.247	2.07	1.894	1.717
313.15 K	2.304	2.193	2.083	1.972	1.862	1.752	1.641	1.531	1.42
323.15 K	1.458	1.446	1.434	1.419	1.401	1.381	1.36	1.335	1.311

NS(=O)(=O)O + CS(C)=O
298 K, 101.33 kPa
Conditions	viscosity [mPa·s]
x1 = 0.02135	2.438
x1 = 0.04282	3.041
x1 = 0.06425	3.822
x1 = 0.08365	4.853

CCCCC + COC(C)=O
298.15 K, 101 kPa
Conditions	viscosity [mPa·s]
x1 = 0.05	0.342
x1 = 0.1	0.324
x1 = 0.1087	0.322
x1 = 0.15	0.309
x1 = 0.2	0.296
x1 = 0.2088	0.295
x1 = 0.25	0.285
x1 = 0.3	0.275
x1 = 0.3035	0.273
x1 = 0.35	0.266
x1 = 0.4	0.257
x1 = 0.401	0.258
x1 = 0.45	0.25
x1 = 0.5	0.243
x1 = 0.5022	0.243
x1 = 0.55	0.237
x1 = 0.5972	0.232
x1 = 0.6	0.232
x1 = 0.65	0.227
x1 = 0.7	0.223
x1 = 0.7028	0.223
x1 = 0.75	0.22
x1 = 0.8	0.218
x1 = 0.8002	0.219
x1 = 0.85	0.217
x1 = 0.9	0.216
x1 = 0.9009	0.218
x1 = 0.95	0.215
